Experimental data taken from PubChem BioAssay AID1259407 (Chemical Carcinogenesis Research Information System (CCRIS), 2018).
Calls of active or inactive are those of the source. The rule behind the calls is not given here.

System: CCRIS mutagenicity, Ames/micronucleus/aberration tests
Test: CCRIS mutagenicity studies

O=C(O)c1ccccc1
mutagenic call (Test System: AMES SALMONELLA TYPHIMURIUM, Strain/Indicator: TA97, Metabolic Activation: HAMSTER, LIVER, S-9, AROCLOR 1254 (10 OR 30%), Method: PREINCUBATION): inactive; negative
mutagenic call (Test System: AMES SALMONELLA TYPHIMURIUM, Strain/Indicator: TA97, Metabolic Activation: NONE, Method: PREINCUBATION): inactive; negative
mutagenic call (Test System: AMES SALMONELLA TYPHIMURIUM, Strain/Indicator: TA97, Metabolic Activation: RAT, LIVER, S-9, AROCLOR 1254, Method: PREINCUBATION): inactive; negative
mutagenic call (Test System: AMES SALMONELLA TYPHIMURIUM, Strain/Indicator: TA97, Metabolic Activation: RAT,LIVER, S-9, AROCLOR 1254 (10 OR 30%), Method: PREINCUBATION): inactive; negative
mutagenic call (Test System: AMES SALMONELLA TYPHIMURIUM, Strain/Indicator: TA97A, Metabolic Activation: NONE, Method: PREINCUBATION): inactive; negative
mutagenic call (Test System: AMES SALMONELLA TYPHIMURIUM, Strain/Indicator: TA97A, Metabolic Activation: RAT, LIVER, S-9, AROCLOR 1254, Method: PREINCUBATION): inactive; negative
mutagenic call (Test System: AMES SALMONELLA TYPHIMURIUM, Strain/Indicator: TA98, Metabolic Activation: GUINEA PIG, LIVER, S-9, PCB, Method: PREINCUBATION): inactive; negative
mutagenic call (Test System: AMES SALMONELLA TYPHIMURIUM, Strain/Indicator: TA98, Metabolic Activation: HAMSTER, LIVER, S-9, AROCLOR 1254 (10 OR 30%), Method: PREINCUBATION): inactive; negative
mutagenic call (Test System: AMES SALMONELLA TYPHIMURIUM, Strain/Indicator: TA98, Metabolic Activation: HAMSTER, LIVER, S-9, PCB, Method: PREINCUBATION): inactive; negative
mutagenic call (Test System: AMES SALMONELLA TYPHIMURIUM, Strain/Indicator: TA98, Metabolic Activation: MOUSE, LIVER, S-9, PCB, Method: PREINCUBATION): inactive; negative
mutagenic call (Test System: AMES SALMONELLA TYPHIMURIUM, Strain/Indicator: TA98, Metabolic Activation: NONE, Method: PREINCUBATION): inactive; negative
mutagenic call (Test System: AMES SALMONELLA TYPHIMURIUM, Strain/Indicator: TA98, Metabolic Activation: NONE, Method: STANDARD PLATE): inactive; negative
mutagenic call (Test System: AMES SALMONELLA TYPHIMURIUM, Strain/Indicator: TA98, Metabolic Activation: RAT, LIVER, S-9, AROCLOR 1254 (10%), Method: PREINCUBATION): inactive; negative
mutagenic call (Test System: AMES SALMONELLA TYPHIMURIUM, Strain/Indicator: TA98, Metabolic Activation: RAT, LIVER, S-9, AROCLOR 1254 (30%), Method: PREINCUBATION): inactive; negative
mutagenic call (Test System: AMES SALMONELLA TYPHIMURIUM, Strain/Indicator: TA98, Metabolic Activation: RAT, LIVER, S-9, AROCLOR 1254, Method: STANDARD PLATE): inactive; negative
mutagenic call (Test System: AMES SALMONELLA TYPHIMURIUM, Strain/Indicator: TA98, Metabolic Activation: RAT, LIVER, S-9, PCB, Method: PREINCUBATION): inactive; negative
mutagenic call (Test System: AMES SALMONELLA TYPHIMURIUM, Strain/Indicator: TA100, Metabolic Activation: GUINEA PIG, LIVER, S-9, PCB, Method: PREINCUBATION): inactive; negative
mutagenic call (Test System: AMES SALMONELLA TYPHIMURIUM, Strain/Indicator: TA100, Metabolic Activation: HAMSTER, LIVER, S-9, AROCLOR 1254 (10 OR 30%), Method: PREINCUBATION): inactive; negative
mutagenic call (Test System: AMES SALMONELLA TYPHIMURIUM, Strain/Indicator: TA100, Metabolic Activation: HAMSTER, LIVER, S-9, PCB, Method: PREINCUBATION): inactive; negative
mutagenic call (Test System: AMES SALMONELLA TYPHIMURIUM, Strain/Indicator: TA100, Metabolic Activation: MOUSE, LIVER, S-9, PCB, Method: PREINCUBATION): inactive; negative
mutagenic call (Test System: AMES SALMONELLA TYPHIMURIUM, Strain/Indicator: TA100, Metabolic Activation: NONE, Method: PREINCUBATION): inactive; negative
mutagenic call (Test System: AMES SALMONELLA TYPHIMURIUM, Strain/Indicator: TA100, Metabolic Activation: NONE, Method: STANDARD PLATE): inactive; negative
mutagenic call (Test System: AMES SALMONELLA TYPHIMURIUM, Strain/Indicator: TA100, Metabolic Activation: RAT, LIVER, S-9, AROCLOR 1254 (10 OR 30%), Method: PREINCUBATION): inactive; negative
mutagenic call (Test System: AMES SALMONELLA TYPHIMURIUM, Strain/Indicator: TA100, Metabolic Activation: RAT, LIVER, S-9, AROCLOR 1254, Method: STANDARD PLATE): inactive; negative
mutagenic call (Test System: AMES SALMONELLA TYPHIMURIUM, Strain/Indicator: TA100, Metabolic Activation: RAT, LIVER, S-9, PCB, Method: PREINCUBATION): inactive; negative
mutagenic call (Test System: AMES SALMONELLA TYPHIMURIUM, Strain/Indicator: TA102, Metabolic Activation: NONE, Method: PREINCUBATION): inactive; negative
mutagenic call (Test System: AMES SALMONELLA TYPHIMURIUM, Strain/Indicator: TA102, Metabolic Activation: RAT, LIVER, S-9, AROCLOR 1254, Method: PREINCUBATION): inactive; negative
mutagenic call (Test System: AMES SALMONELLA TYPHIMURIUM, Strain/Indicator: TA1535, Metabolic Activation: HAMSTER, LIVER, S-9, AROCLOR 1254 (10 OR 30%), Method: PREINCUBATION): inactive; negative
mutagenic call (Test System: AMES SALMONELLA TYPHIMURIUM, Strain/Indicator: TA1535, Metabolic Activation: NONE, Method: PREINCUBATION): inactive; negative
mutagenic call (Test System: AMES SALMONELLA TYPHIMURIUM, Strain/Indicator: TA1535, Metabolic Activation: NONE, Method: STANDARD PLATE): inactive; negative
mutagenic call (Test System: AMES SALMONELLA TYPHIMURIUM, Strain/Indicator: TA1535, Metabolic Activation: RAT, LIVER, S-9, AROCLOR 1254 (10%), Method: PREINCUBATION): inactive; negative
mutagenic call (Test System: AMES SALMONELLA TYPHIMURIUM, Strain/Indicator: TA1535, Metabolic Activation: RAT, LIVER, S-9, AROCLOR 1254 (30%), Method: PREINCUBATION): inactive; negative
mutagenic call (Test System: AMES SALMONELLA TYPHIMURIUM, Strain/Indicator: TA1535, Metabolic Activation: RAT, LIVER, S-9, AROCLOR 1254, Method: STANDARD PLATE): inactive; negative
mutagenic call (Test System: AMES SALMONELLA TYPHIMURIUM, Strain/Indicator: TA1537, Metabolic Activation: HAMSTER, LIVER, S-9, AROCLOR 1254 (10 OR 30%), Method: PREINCUBATION): inactive; negative
mutagenic call (Test System: AMES SALMONELLA TYPHIMURIUM, Strain/Indicator: TA1537, Metabolic Activation: NONE, Method: PREINCUBATION): inactive; negative
mutagenic call (Test System: AMES SALMONELLA TYPHIMURIUM, Strain/Indicator: TA1537, Metabolic Activation: NONE, Method: STANDARD PLATE): inactive; negative
mutagenic call (Test System: AMES SALMONELLA TYPHIMURIUM, Strain/Indicator: TA1537, Metabolic Activation: RAT, LIVER, S-9, AROCLOR 1254 (10%), Method: PREINCUBATION): inactive; negative
mutagenic call (Test System: AMES SALMONELLA TYPHIMURIUM, Strain/Indicator: TA1537, Metabolic Activation: RAT, LIVER, S-9, AROCLOR 1254 (30%), Method: PREINCUBATION): inactive; negative
mutagenic call (Test System: AMES SALMONELLA TYPHIMURIUM, Strain/Indicator: TA1537, Metabolic Activation: RAT, LIVER, S-9, AROCLOR 1254, Method: STANDARD PLATE): inactive; negative
mutagenic call (Test System: AMES SALMONELLA TYPHIMURIUM, Strain/Indicator: TA1538, Metabolic Activation: NONE, Method: STANDARD PLATE): inactive; negative
mutagenic call (Test System: AMES SALMONELLA TYPHIMURIUM, Strain/Indicator: TA1538, Metabolic Activation: RAT, LIVER, S-9, AROCLOR 1254, Method: STANDARD PLATE): inactive; negative
mutagenic call (Test System: Ames Salmonella typhimurium, Strain/Indicator: TA98, Metabolic Activation: None, Method: Direct plate incorporation): inactive; negative
mutagenic call (Test System: Ames Salmonella typhimurium, Strain/Indicator: TA98, Metabolic Activation: Rat, liver, S-9, Aroclor 1254, Method: Direct plate incorporation): inactive; negative
mutagenic call (Test System: Ames Salmonella typhimurium, Strain/Indicator: TA100, Metabolic Activation: None, Method: Direct plate incorporation): inactive; negative
mutagenic call (Test System: Ames Salmonella typhimurium, Strain/Indicator: TA100, Metabolic Activation: Rat, liver, S-9, Aroclor 1254, Method: Direct plate incorporation): inactive; negative
mutagenic call (Test System: E. COLI, Strain/Indicator: WP2, Metabolic Activation: NONE, Method: STANDARD PLATE): inactive; negative
mutagenic call (Test System: E. COLI, Strain/Indicator: WP2, Metabolic Activation: RAT, LIVER, S-9, AROCLOR 1254, Method: STANDARD PLATE): inactive; negative

Cc1ccc(N(CC2(O)OC[C@@H](O)[C@@H](O)[C@@H]2O)N=O)cc1 (stereo not given in full)
mutagenic call (Test System: AMES SALMONELLA TYPHIMURIUM, Strain/Indicator: TA100, Metabolic Activation: NONE, Method: LIQUID INCUBATION): active; positive

Nc1ccc(N=Nc2cccc(N)c2N)cc1
mutagenic call (Test System: AMES SALMONELLA TYPHIMURIUM, Strain/Indicator: TA98, Method: PREINCUBATION): active; positive
mutagenic call (Test System: AMES SALMONELLA TYPHIMURIUM, Strain/Indicator: TA100, Method: PREINCUBATION): active; positive
